Tests used:
Format in all cases: cell-based
PC3M-pro4 = test: Growth/viability assay, IC50 at 72 h; settings: Homo sapiens; PC3M-pro4, Fig. 2g
Source text: (§1) Four commercial (LnCaP, 22rv1, DU145 and PC3) and twelve non-commercial (LAPC-4 [44], CWR22, PCb2 [45], PC3Lymphnode, PC3M, PC3M-pro4 [46] and PC3M-Ln4 [47], LnCaP-104S [47], LnCaP104R1 [47], LnCaP-C81 [47], C4-2B [48], VCAP [49] and DuCaP [[49]) cell lines were selected for the in vitro experimental studies for their biological characteristics: LAPC-4 (Androgen receptor [AR] positive, androgen dependent with low Akt/mTOR activities, p53 wt); LnCaP (AR positive, androgen dependent with high Akt/mTOR activities, p53 wt); LnCaP-C81 and LnCaP-C4-2B (AR positive, androgen independent with high Akt/mTOR activities, p53 wt); 22rv1 (AR positive, androgen independent with low Akt/mTOR activities, p53 wt); PC3 (AR negative, with high Akt/mTOR activities and no p53 function (p53 del) and DU145 (AR negative, with low Akt/mTOR activities and mutant p53). PC3 and DU145 have been also transfected with AR to obtain PC3AR [50] and DU-AR [51]. Benign prostatic hyperplasia line (BPH1), and Prostatic epithelial lines (EPN and RWPE-1) were used as non-neoplastic controls. Cells were routinely cultured in appropriate medium supplemented with 10 % fetal bovine serum (FBS), 1 % pen-strep and 1 % L-glutamine (Invitrogen Corporation, Carlsbad, CA). To minimize the risk to work with misidentified and/or contaminated cell lines, DNA profiling was periodically carried out in-house to authenticate cell cultures. DNA was isolated from cell lines using a standard DNA isolation kit. STR profiling was performed by using GenePrint® 10 System (Promega Corporation, Madison, WI). An eight-capillary 3500 Genetic Analyzer (Applied Biosystems Life Technologies Europe BV, Monza, Italy) was used to separate and identify alleles using standard procedures. GenePrint® 10 System allows co-amplification and detection of eight human loci required by the guidelines ASN-0002. For non-commercial cell lines, the authentication process was carried out by comparing STR-fingerprints with those published by Adri van Bokhoven and co-workers. In addition, cell lines were stocked at very low passages and used at <15-20 subcultures.
(§2) Cells were seeded at a density of 2 x 10^4 cells/mL in 24-well plates. Cells were left to attach and grow in 5 % FCS DMEM for 24 h. After this time, cells were maintained in the appropriate culture conditions. Morphological controls were performed every day with an inverted phase-contrast photomicroscope (Nikon Diaphot, Tokyo, Japan) before cell trypsinization and counting. Cells were trypsinized and resuspended in 1.0 ml of saline, then counted using a NucleoCounter™ NC-100 (automated cell counter systems, Chemotec, Gydevang, Denmark). The effect on cell proliferation was measured by taking the mean cell number with respect to controls over time for the different treatment groups.
(§3) Viable cells were counted by using the NucleoCounter™ NC-100 (automated cell counter systems, Chemotec, Cydevang, DK). Apoptosis was evaluated by using Tali® Apoptosis Kit - Annexin V Alexa Fluor® 488 & Propidium Iodide-based, (Life Technologies Italia, Monza, Italy). Stained cells were then measured on a Tali® Image-Based Cytometer. Apoptosis was further confirmed by FACS analysis following the instructions of the manufacturer.
(§4) Six SINE analogs KPT-127, KPT-185, KPT-205, KPT-227, KPT251 and KPT-330 sharing a trifluoromethyl phenyl triazole scaffold, were investigated for their growth inhibitory and apoptotic potential in our PCa cell panel. Therefore, the effects of these XPO1 inhibitors were evaluated on the growth of PCa cell lines performing dose- and time-dependent studies. To examine the dose-dependent effects of these compounds, we treated cells with varying doses of the compounds (0, 1, 10, 50, 100, 500 and 1000 nM) and assessed viability at 72 hours after treatment. The IC50 for each compound was then calculated. […]

PCb2 = test: Growth/viability assay, IC50 at 72 h; settings: Homo sapiens; PCb2, Fig. 2g
Source text: as §1, §2, §3, §4

LAPC-4 = test: Growth/viability assay, IC50 at 72 h; settings: Homo sapiens
Source text: as §1, §2, §3, §4

LnCaP = test: Growth/viability assay, IC50 at 72 h; settings: Homo sapiens
Source text: as §1, §2, §3, §4

BPH-1 = test: Growth/viability assay, IC50 at 72 h; settings: Homo sapiens
Source text: as §1, §2, §3, §4

DuCaP = test: Growth/viability assay, IC50 at 72 h; settings: Homo sapiens, Fig. 2g
Source text: as §1, §2, §3, §4

RWPE-1 = test: Growth/viability assay, IC50 at 72 h; settings: Homo sapiens; RWPE-1, Fig. 2g
Source text: as §1, §2, §3, §4

LnCaP104R1 = test: Growth/viability assay, IC50 at 72 h; settings: Homo sapiens; 104R1, Fig. 2g
Source text: as §1, §2, §3, §4

PC3AR = test: Growth/viability assay, IC50 at 72 h; settings: Homo sapiens, PC3/AR, Fig. 2g
Source text: as §1, §2, §3, §4

VCaP = test: Growth/viability assay, IC50 at 72 h; settings: Homo sapiens, Fig. 2g
Source text: as §1, §2, §3, §4

LnCaP-C81 = test: Growth/viability assay, IC50 at 72 h; settings: Homo sapiens; C-81, Fig. 2g
Source text: as §1, §2, §3, §4

DU-AR = test: Growth/viability assay, IC50 at 72 h; settings: Homo sapiens, Fig. 2g
Source text: as §1, §2, §3, §4

DU145 = test: Growth/viability assay, IC50 at 72 h; settings: Homo sapiens, DU-145; DU145, Fig. 2g
Source text: as §1, §2, §3, §4

EPN = test: Growth/viability assay, IC50 at 72 h; settings: Homo sapiens, Fig. 2g
Source text: as §1, §2, §3, §4

C4-2B = test: Growth/viability assay, IC50 at 72 h; settings: Homo sapiens, Fig. 2g
Source text: as §1, §2, §3, §4

LnCaP-104S = test: Growth/viability assay, IC50 at 72 h; settings: Homo sapiens, Fig. 2g
Source text: as §1, §2, §3, §4

CWR22 = test: Growth/viability assay, IC50 at 72 h; settings: Homo sapiens; CWR22, Fig. 2g
Source text: as §1, §2, §3, §4

PC3 = test: Growth/viability assay, IC50 at 72 h; settings: Homo sapiens, PC-3
Source text: as §1, §2, §3, §4

22rv1 = test: Growth/viability assay, IC50 at 72 h; settings: Homo sapiens
Source text: as §1, §2, §3, §4

PC3M-Ln4 = test: Growth/viability assay, IC50 at 72 h; settings: Homo sapiens; PC3M-Ln4, Fig. 2g
Source text: as §1, §2, §3, §4

PCa cell lines = test: Growth inhibition across the PCa cell panel; settings: Homo sapiens; 72 hours, range across the cell panel; read-out: IC50 values, range over PCa cell lines
Source text: as §1, with “STR profiling was performed by using GenePrint® 10 System (Promega Corporation, Madison, WI). An eight-capillary 3500 Genetic Analyzer (Applied Biosystems Life Technologies Europe BV, Monza, Italy) was used to separate and identify alleles using standard procedures. GenePrint® 10 System allows co-amplification and detection of eight human loci required by the guidelines ASN-0002. For non-commercial cell lines, the authentication process was carried out by comparing STR-fingerprints with those published by Adri van Bokhoven and co-workers. In addition, cell lines were stocked at very low passages and used at <15-20 subcultures.” left out
Cells were seeded at a density of 2 x 10^4 cells/mL in 24-well plates. […] Cells were trypsinized and resuspended in 1.0 ml of saline, then counted using a NucleoCounter™ NC-100 (automated cell counter systems, Chemotec, Gydevang, Denmark). The effect on cell proliferation was measured by taking the mean cell number with respect to controls over time for the different treatment groups.
as §3, with “Apoptosis was further confirmed by FACS analysis following the instructions of the manufacturer.” left out
as §4

Row | IC50 (PC3M-pro4) [nM] | IC50 (LnCaP; Fig. 2g) [nM] | IC50 (LnCaP104R1) [nM] | IC50 (PC3AR) [nM] | IC50 (VCaP) [nM] | IC50 (LnCaP-C81) [nM] | IC50 (DU145) [nM] | IC50 (LnCaP-104S) [nM] | IC50 (PC3; PC3, Fig. 2g) [nM] | IC50 (22rv1; 22rv1, Fig. 2g) [nM] | SMILES | IC50 (PCb2) [nM] | IC50 (LAPC-4; LAPC4, LAPC-4, Fig. 2g) [nM] | IC50 (BPH-1; BPH-1, BPH1, Fig. 2g) [nM] | IC50 (BPH-1; BPH-1, 72 hours, Fig. 2a-f) [nM] | IC50 (DuCaP) [nM] | IC50 (RWPE-1) [nM] | IC50 (DU-AR) [nM] | IC50 (EPN) [nM] | IC50 (C4-2B) [nM] | IC50 (CWR22) [nM] | further results
1 | 355 | 257 | 270 | 260 | 440 | 240 | 360 | 200 | 300 | 361 | FC(F)(F)c1cc(-c2ncn(/C=C\c3nnco3)n2)cc(C(F)(F)F)c1 [KPT-251] | 320 | 628 | > 1000 | > 1000 | 210 | 1000 | 300 | 1000 | 200 | 480 | IC50 (LAPC-4; LAPC4, 72 hours, Fig. 2a-f): 628 ± 123 nM; IC50 (LnCaP; 72 hours, Fig. 2a-f): 257 ± 82 nM; IC50 (PC3; PC3, 72 hours, Fig. 2a-f): 380 ± 39 nM; IC50 (22rv1; 22rv1, 72 hours, Fig. 2a-f): 361 ± 59 nM; IC50 (PC3M-Ln4): 210 nM; IC50 (PCa cell lines): 150 to 300 nM
2 | 118 | 171 | 83 | 122 | 120 | 80 | 105 | 130 | 103 | 102 | O=C(/C=C\n1cnc(-c2cc(C(F)(F)F)cc(C(F)(F)F)c2)n1)NNc1cnccn1 [KPT-330] | 114 | 365 | > 1000 | > 1000 | 160 | 1000 | 124 | 800 | 66 | 160 | IC50 (PC3M-Ln4): 90 nM; IC50 (PCa cell lines): 43 to 201 nM
